This is an account of results in patent publication US20120095211A1, “SUBSTITUTED PROLINE INHIBITORS OF HEPATITIS C VIRUS REPLICATION” (InterMune, Inc., priority 2010, published 2012).

Where two headings read alike, the source gives them in different places.

The conditions of series [1]: rcm bond.
In series [2] the test system is hepatitis C replicon. Nature of the series: hepatitis C replicon EC50 assay. Type of series: cell-based, hepatitis C virus (HCV). Conditions: Hepatitis C virus. An excerpt: (§1) NS3-NS4 inhibition activity can be determined using known assay methods. For example, NS3/NS4 complexes may be formed and inhibitory concentrations of test compounds determined as described in U.S. Patent Application Publication Number 2007/0054842 paragraph numbers 1497-1509, which is incorporated herein by reference in its entirety. Similarly, hepatitis C replicon EC50 may be determined using known assay methods such as described in U.S. Patent Application Publication Number 2007/0054842 paragraph numbers 1510-1515, which is incorporated herein by reference in its entirety. Assays may be conducted at ambient temperature (23° C.) in assay buffer containing 50 mM Tris-HCl, pH 7.5, 15% glycerol, 0.6 mM Lauryldimethylamine Oxide (LDAO), 25 μM NS4A peptide, and 10 mM Dithiothreitol (DTT).
(Replicon systems follow genome replication, usually without infectious particles.)

For series [3], the target named is NS3/NS4 complexes (Hepatitis C virus genotype 1a, UniProt P27958). Kind of series: NS3/NS4 inhibition assay (inhibitory concentrations of test compounds). Type of series: biochemical. Conditions: NS3-NS4 activity; 23° C., pH 7.5, 25 μM NS4A peptide.
NS3/NS4 complexes, sequence (P27958 1658-1711): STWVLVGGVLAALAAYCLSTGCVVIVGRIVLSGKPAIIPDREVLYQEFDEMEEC
NS3/NS4 complexes, sequence (P27958 1027-1657): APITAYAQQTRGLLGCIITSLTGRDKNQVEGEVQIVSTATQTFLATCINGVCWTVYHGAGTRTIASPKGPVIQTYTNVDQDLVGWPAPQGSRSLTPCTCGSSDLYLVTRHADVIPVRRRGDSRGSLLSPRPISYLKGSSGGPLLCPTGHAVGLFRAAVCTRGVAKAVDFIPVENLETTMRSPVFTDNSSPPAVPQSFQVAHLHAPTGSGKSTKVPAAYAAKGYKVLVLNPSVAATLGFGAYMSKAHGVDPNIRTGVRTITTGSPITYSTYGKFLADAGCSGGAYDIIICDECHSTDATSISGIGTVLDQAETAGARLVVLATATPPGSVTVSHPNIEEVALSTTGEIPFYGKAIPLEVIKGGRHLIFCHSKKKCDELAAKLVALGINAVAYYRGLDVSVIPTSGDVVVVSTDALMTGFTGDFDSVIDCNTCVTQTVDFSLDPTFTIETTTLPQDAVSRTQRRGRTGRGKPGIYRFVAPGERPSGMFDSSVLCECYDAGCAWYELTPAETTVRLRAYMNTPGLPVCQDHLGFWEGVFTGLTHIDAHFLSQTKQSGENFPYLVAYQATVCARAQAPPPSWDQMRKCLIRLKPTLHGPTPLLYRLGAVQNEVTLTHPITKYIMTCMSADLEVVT
Description: as §1

Where [4] appears, read: hepatitis C replicon, read-out: EC50.

In turn, `CC(C)n1c(O[C@H]2CN3C(=O)[C@@H](NC(=O)OC(C)(C)C)CCCCCC=C[C@@H]4C[C@@]4(C(=O)NS(=O)(=O)C4(C)CC4)NC(=O)[C@@H]3[C@@H]2C)nc2c(-c3nc(C4CCCCC4)cs3)cccc21` came in with a ring closure, yield of all isomers in series [1] (from C=CCCCCC[C@H](NC(=O)OC(C)(C)C)C(=O)N1C[C@H](Oc2nc3c(-c4nc(C5CCCCC5)cs4)cccc3n2C(C)C)[C@@H](C)[C@H]1C(=O)N[C@]1(C(=O)NS(=O)(=O)C2(C)CC2)C[C@H]1C=C, Zhan catalyst, toluene, 5.16 mM, 65.0 °C, 1.0 h) of 53.9%.
In series [1] (from C=CCCCCC[C@H](NC(=O)OC(C)(C)C)C(=O)N1C[C@H](Oc2cc(-c3nc(C(C)C)cs3)nc3c(C)c(OC)ccc23)[C@@H](C)[C@H]1C(=O)N[C@]1(C(=O)OCC)C[C@H]1C=C, Zhan catalyst, toluene, 11.67 mM, 70.0 °C, 2.0 h), `CCOC(=O)[C@@]12C[C@H]1C=CCCCCC[C@H](NC(=O)OC(C)(C)C)C(=O)N1C[C@H](Oc3cc(-c4nc(C(C)C)cs4)nc4c(C)c(OC)ccc34)[C@@H](C)[C@H]1C(=O)N2` returned a ring closure, yield of all isomers of 75%.
Take `CCOC(=O)[C@@]12C[C@H]1C=CCCCCC[C@H](NC(=O)OC(C)(C)C)C(=O)N1C[C@H](Oc3nc4c(-c5nc(C6CCCCC6)cs5)cccc4n3C(C)C)[C@@H](C)[C@H]1C(=O)N2`: in series [1] (from C=CCCCCC[C@H](NC(=O)OC(C)(C)C)C(=O)N1C[C@H](Oc2nc3c(-c4nc(C5CCCCC5)cs4)cccc3n2C(C)C)[C@@H](C)[C@H]1C(=O)N[C@]1(C(=O)OCC)C[C@H]1C=C, Hoveyda-Grubbs catalyst, 1,2-dichloroethane, 0.96 mM), the ring closure, yield of all isomers came out at 83%.
With `CCOC(=O)[C@@]12C[C@H]1C=CCCCCC[C@H](NC(=O)OC(C)(C)C)C(=O)N1C[C@H](Oc3ncc(OC)c4ccc(Cl)cc34)[C@@H](C)[C@H]1C(=O)N2`, the ring closure, yield of all isomers in series [1] (from C=CCCCCC[C@H](NC(=O)OC(C)(C)C)C(=O)N1C[C@H](Oc2ncc(OC)c3ccc(Cl)cc23)[C@@H](C)[C@H]1C(=O)N[C@]1(C(=O)OCC)C[C@H]1C=C, Hoveyda-Grubbs catalyst, 1,2-dichloroethane, 0.8 mM, 12.0 h) came out at 92%.
With `COc1ccc2c(O[C@H]3CN4C(=O)[C@@H](NC(=O)OC(C)(C)C)CCCCCC=C[C@@H]5C[C@@]5(C(=O)NS(=O)(=O)C5(C)CC5)NC(=O)[C@@H]4C3(C)C)cc(-c3nc(C(C)C)cs3)nc2c1C`, the ring closure, yield of all isomers in series [1] (from C=CCCCCC[C@H](NC(=O)OC(C)(C)C)C(=O)N1C[C@H](Oc2cc(-c3nc(C(C)C)cs3)nc3c(C)c(OC)ccc23)C(C)(C)[C@H]1C(=O)N[C@]1(C(=O)NS(=O)(=O)C2(C)CC2)C[C@H]1C=C, Zhan catalyst, toluene, 5.9 mM, 65.0 °C, 1.33 h) was 56%.
`COc1ccc2c(O[C@H]3CN4C(=O)[C@@H](NC(=O)OC(C)(C)C)CCCCCC=C[C@@H]5C[C@@]5(C(=O)NS(=O)(=O)C5(C)CC5)NC(=O)[C@@H]4[C@@H]3C)cc(-c3nc(C(C)C)cs3)nc2c1C`: the ring closure, yield of all isomers in series [1] (from C=CCCCCC[C@H](NC(=O)OC(C)(C)C)C(=O)N1C[C@H](Oc2cc(-c3nc(C(C)C)cs3)nc3c(C)c(OC)ccc23)[C@@H](C)[C@H]1C(=O)N[C@]1(C(=O)NS(=O)(=O)C2(C)CC2)C[C@H]1C=C, Zhan catalyst, toluene, 5.9 mM, 65.0 °C, 0.5 h) turned out to be 68%.
`COc1ccc2c(O[C@H]3CN4C(=O)[C@@H](NC(=O)OC(C)(C)C)CCCCCC=C[C@@H]5C[C@@]5(C(=O)NS(=O)(=O)C5(C)CC5)NC(=O)[C@@H]4[C@H]3C)cc(-c3nc(C(C)C)cs3)nc2c1C` yielded a ring closure, yield of all isomers in series [1] (from C=CCCCCC[C@H](NC(=O)OC(C)(C)C)C(=O)N1C[C@H](Oc2cc(-c3nc(C(C)C)cs3)nc3c(C)c(OC)ccc23)[C@H](C)[C@H]1C(=O)N[C@]1(C(=O)NS(=O)(=O)C2(C)CC2)C[C@H]1C=C, Zhan catalyst, 70.0 °C, 0.5 h) of 59%.
Broadly, the EC50 is the concentration that produces a half-maximal response. Usually IC50 stands for the concentration needed to halve the response being measured. As to `COc1ccc2c(O[C@H]3CN4C(=O)[C@@H](NC(=O)OC(C)(C)C)CCCCC/C=C\[C@@H]5C[C@@]5(C(=O)NS(=O)(=O)C5(C)CC5)NC(=O)[C@@H]4C3(C)C)cc(-c3nc(C(C)C)cs3)nc2c1C` [Compound 101], the EC50 in series [2] (setting [4]) is above 100 nM. In addition, the IC50 in series [3] is 10 to 100 nM.
In the same order, the values of `COc1ccc2c(O[C@H]3CN4C(=O)[C@@H](NC(=O)OC(C)(C)C)CCCCC/C=C\[C@@H]5C[C@@]5(C(=O)NS(=O)(=O)C5(C)CC5)NC(=O)[C@@H]4[C@@H]3C)cc(-c3nc(C(C)C)cs3)nc2c1C` [Compound 102] are below 10 nM and below 10 nM.
Turning to `COc1ccc2c(O[C@H]3CN4C(=O)[C@@H](NC(=O)OC(C)(C)C)CCCCC/C=C\[C@@H]5C[C@@]5(C(=O)NS(=O)(=O)C5CC5)NC(=O)[C@@H]4[C@@H]3C)cc(-c3nc(C(C)C)cs3)nc2c1C` [Compound 103], the EC50 in series [2] (setting [4]) is below 10 nM. In series [3], this compound registered an IC50 below 10 nM.
As for `COc1ccc2c(O[C@H]3CN4C(=O)[C@@H](N)CCCCC/C=C\[C@@H]5C[C@@]5(C(=O)NS(=O)(=O)C5(C)CC5)NC(=O)[C@@H]4[C@@H]3C)cc(-c3nc(C(C)C)cs3)nc2c1C` [Compound 104], the EC50 in series [2] (setting [4]) lay within 10 to 100 nM. The compound further came in with an IC50 in series [3] below 10 nM.
In the same order, the values of `COc1ccc2c(O[C@H]3CN4C(=O)[C@@H](NC(=O)OC(C)(C)C)CCCCC/C=C\[C@@H]5C[C@@]5(C(=O)NS(=O)(=O)C5(C)CC5)NC(=O)[C@@H]4[C@H]3C)cc(-c3nc(C(C)C)cs3)nc2c1C` [Compound 106] are above 100 nM and 10 to 100 nM.
In the same order, the values of `CC(C)n1c(O[C@H]2CN3C(=O)[C@@H](NC(=O)OC(C)(C)C)CCCCC/C=C\[C@@H]4C[C@@]4(C(=O)NS(=O)(=O)C4(C)CC4)NC(=O)[C@@H]3[C@@H]2C)nc2c(-c3nc(C4CCCCC4)cs3)cccc21` [Compound 107] are 10 to 100 nM and below 10 nM.
`CC(C)n1c(O[C@H]2CN3C(=O)[C@@H](NC(=O)OC(C)(C)C)CCCCC/C=C\[C@@H]4C[C@@]4(C(=O)NS(=O)(=O)C4CC4)NC(=O)[C@@H]3[C@@H]2C)nc2c(-c3nc(C4CCCCC4)cs3)cccc21` [Compound 109]: in series [2] (setting [4]), the EC50 lay within 10 to 100 nM. This compound also yielded an IC50 in series [3] below 10 nM.
On the same counts, the results for `COc1cnc(O[C@H]2CN3C(=O)[C@@H](NC(=O)OC(C)(C)C)CCCCC/C=C\[C@@H]4C[C@@]4(C(=O)O)NC(=O)[C@@H]3[C@@H]2C)c2cc(Cl)ccc12` [Compound 110] are above 100 nM and below 10 nM.
In the same order, the values of `COc1cnc(O[C@H]2CN3C(=O)[C@@H](NC(=O)OC(C)(C)C)CCCCC/C=C\[C@@H]4C[C@@]4(C(=O)NS(=O)(=O)C4(C)CC4)NC(=O)[C@@H]3[C@@H]2C)c2cc(Cl)ccc12` [Compound 111] are below 10 nM and below 10 nM.
`C=C[C@@H]1C[C@]1(NC(=O)[C@H]1N(C(=O)C(NC(=O)OC(C)(C)C)C(C)(C)C)C[C@H](Oc2cc(-c3nc(C(C)C)cs3)nc3c(C)c(OC)ccc23)C1(C)C)C(=O)NS(=O)(=O)C1(C)CC1` (some centres unmarked) [Compound 202]: in series [2] (setting [4]), the EC50 was above 100 nM. In series [3], this compound displayed an IC50 above 100 nM.
As for `C=C[C@@H]1C[C@]1(NC(=O)[C@@H]1[C@H](C)[C@@H](Oc2cc(-c3nc(C(C)C)cs3)nc3c(C)c(OC)ccc23)CN1C(=O)C(N)C(C)(C)C)C(=O)NS(=O)(=O)C1(C)CC1` (some centres unmarked) [Compound 203], the EC50 in series [2] (setting [4]) lay within 10 to 100 nM. In series [3], this compound gave an IC50 below 10 nM.
On the same counts, the results for `C=C[C@@H]1C[C@]1(NC(=O)[C@@H]1[C@H](C)[C@@H](Oc2cc(-c3nc(C(C)C)cs3)nc3c(C)c(OC)ccc23)CN1C(=O)[C@@H](NC(=O)OC(C)(C)C)C(C)(C)C)C(=O)NS(=O)(=O)C1(C)CC1` [Compound 204] are below 10 nM and below 10 nM.
In the same order, the values of `C=C[C@@H]1C[C@]1(NC(=O)[C@@H]1[C@H](C)[C@@H](Oc2cc(-c3nc(C(C)C)cs3)nc3c(C)c(OC)ccc23)CN1C(=O)[C@@H](NC(=O)OC(C)(C)C)C(C)(C)C)C(=O)NS(=O)(=O)C1CC1` [Compound 205] are below 10 nM and below 10 nM.
In the case of `C=C[C@@H]1C[C@]1(NC(=O)[C@@H]1[C@H](C)[C@@H](Oc2cc(-c3nc(C(C)C)cs3)nc3c(C)c(OC)ccc23)CN1C(=O)[C@@H](N)C(C)(C)C)C(=O)NS(=O)(=O)C1CC1` [Compound 207], in series [2] (setting [4]), the EC50 was above 100 nM. Further, the IC50 in series [3] is below 10 nM.
For `C=C[C@@H]1C[C@]1(NC(=O)[C@@H]1[C@@H](C)[C@@H](Oc2cc(-c3nc(C(C)C)cs3)nc3c(C)c(OC)ccc23)CN1C(=O)[C@@H](NC(=O)OC(C)(C)C)C(C)(C)C)C(=O)NS(=O)(=O)C1(C)CC1` [Compound 208], the EC50 in series [2] is above 100 nM. Further, the IC50 in series [3] lay within 10 to 100 nM.
Take `C=C[C@@H]1C[C@]1(NC(=O)[C@@H]1[C@H](C)[C@@H](Oc2cc(-c3nc(C(C)C)cs3)nc3c(C)c(OC)ccc23)CN1C(=O)[C@@H](Nc1cccc(C(F)(F)F)c1)C(C)(C)C)C(=O)NS(=O)(=O)C1(C)CC1` [Compound 209]: in series [2] (setting [4]), the EC50 was 10 to 100 nM. In series [3], this compound yielded an IC50 below 10 nM.
In the same order, the values of `C=C[C@@H]1C[C@]1(NC(=O)[C@@H]1[C@H](C)[C@@H](Oc2ncc(OC)c3ccc(Cl)cc23)CN1C(=O)[C@@H](NC(=O)OC(C)(C)C)C(C)(C)C)C(=O)O` [Compound 210] are above 100 nM and 10 to 100 nM.
For `C=C[C@@H]1C[C@]1(NC(=O)[C@@H]1[C@H](C)[C@@H](Oc2ncc(OC)c3ccc(Cl)cc23)CN1C(=O)[C@@H](NC(=O)OC(C)(C)C)C(C)(C)C)C(=O)NS(=O)(=O)C1(C)CC1` [Compound 211], in series [2] (setting [4]), the EC50 is below 10 nM. In series [3], this compound yielded an IC50 below 10 nM.
Turning to `C=C[C@@H]1C[C@]1(NC(=O)[C@@H]1[C@@H](C)[C@@H](Oc2cc(-c3nc(C(C)C)cs3)nc3c(C)c(OC)ccc23)CN1C(=O)[C@@H](N)C(C)(C)C)C(=O)NS(=O)(=O)C1(C)CC1` [Compound 212], the IC50 in series [3] is above 100 nM.
